Data reported in US11185527B2, “Methods and compositions relating to steroid hormone receptor-dependent cancers” (Wayne State University, priority 2017, dated 2021).
Where “and” joins values, the source holds several entries; their conditions need not be identical. Equal entries are not always repeated.

Experiments:
[1] = tested on: ELK1-dependent promoter activation by AR; assay: Primary screening assay: luciferase reporter in recombinant HeLa cells (Gal4-TATA-Luc, Gal4-ELK1, AR) treated with testosterone; format: cell-based, human; conditions: for inhibition of ELK1-dependent promoter activation by AR (in words): testosterone-treated recombinant HeLa cells, luciferase
Source text: FIG. 6A is a schematic diagram of the reporter system for the primary screening assay. Recombinant HeLa cells used in this assay harbor the Gal4-TATA-Luc promoter-reporter, and stably express a Gal4-ELK1 fusion protein as well as the androgen receptor (AR). Gal4-ELK1 is bound to the Gal4 elements in the promoter. In the absence of testosterone (small circle), AR is localized in the cytoplasm. When testosterone is present it binds to AR causing AR to translocate to the nucleus where it then binds to Gal4-ELK1 and activates the downstream luciferase reporter.
HeLa HLR cells obtained from Dr. Johann Hofman (Innsbruck Medical University), which were originally designed to serve as a cell-based assay system to measure modulation of MAPK activity. HeLa HLR cells have a stably integrated minimal promoter-luciferase reporter containing five upstream Gal4 elements (Gal4-TATA-Luc) and also constitutively express a Gal4-ELK1 fusion protein in which the Gal4 DNA binding domain is substituted for the ETS DNA binding domain of ELK1. In order to produce recombinant cell lines for high throughput screening and counter screening of small molecule libraries, HeLa HLR were stably transduced with a vector expressing the full-length AR. A sequence encoding the full length AR (SEQ ID NO:9) was subcloned from the pCMV expression vector (Origene) into the pCDH-CMV-MCS-EF1-Puro cDNA Cloning and Expression Vector (System Biosciences) at NheI (upstream) and BamHI (downstream) sites. The lentiviral vector expressing full length AR was then packaged in lentivirus and the HeLa HLR cells were infected as described below in the sub-section “Lentivirus-mediated-Transduction.” After 72 hours (h) of infection, 2 ug/mL of puromycin was added to the culture medium to select for the transduced cells. The cells were plated at low density for colony formation (20-40 colonies) in a 100 mm dish. Clonal cells were isolated using cloning cylinders from CORNING (Cat. #3166-8). The selected clones were further expanded and then tested for luciferase induction by testosterone. The clone that gave the greatest luciferase signal to noise ratio in response to testosterone treatment was then chosen for use in the primary screening assay for high throughput small molecule screening.
For high throughput screening, recombinant primary screening cells were first depleted of hormone by growing them for 24h in medium in which the serum used was heat-inactivated and charcoal-stripped. The cells were then plated in 384-well white flat bottom plates (5,000 cells/well) (Corning Product #3570) using a Multidrop (Thermo Fisher Scientific, Waltham, Mass.). The plates were then incubated for 24h prior to adding test compounds. The following day test compounds from the LOPAC, Prestwick, or Maybridge Hitfinder libraries were added precisely in a 0.2 μL volume in the test wells using a Biomek FX liquid handler (Beckman Coutler, Break, Calif.) to achieve final media concentration of 10 μM of each test compound. Using the Multidrop (ThermoLab Systems, Helsinki, Finland), testosterone was added in addition to the test compounds to achieve a final media concentration of 10 nM. As the test compounds were re-constituted from powder stocks using dimethyl sulfoxide (DMSO) as the solvent, the final media concentration of DMSO was 0.4% v/v. For the assay negative control on each plate, one row of wells on each plate contained 10 nM testosterone and 0.4% v/v of DMSO. For the assay positive control on each plate, one row of wells on each plate contained 10 nM testosterone and 10 uM enzalutamide dissolved in DMSO (0.4% v/v of DMSO in the wells). The plates were incubated for 24h at 37° C. in 5% CO2. The medium was then aspirated leaving a residual volume 10 μl using an Elx 405-plate washer (Bio Tek U.S.). Then, 10 uL of the assay reagent Bright-Glo (Promega Corp., Madison Wis.) was added to each well. […]

[2] = Metabolism in pooled human liver microsomes (HLM) with or without NADPH; format: in vitro ADME
Protocol: BD UltraPool human liver microsomes (HLM) 150 and the NAPDH regenerating system solution A and B were obtained from Corning Inc. Pooled HLM were used to determine percentage of metabolism of 5,3′-Dihydroxyflavone and 5,3-Dihydroxy-4′-methylflavone. The compounds (20 μM) were co-incubated with HLM (0.05 mg/ml) in the presence or absence of NAPDH for 30 minutes in a 37° C. water bath. At the end of the microsome reaction, the reaction was quenched with 1000 μl ethyl acetate. The mixture was vortexed and centrifuged at 13,000 rpm for 15 minutes, the supernatant was then subjected to high-performance liquid chromatography with tandem mass spectrometry ([…]) analysis.

[3] = tested on: 22Rv1 cells; assay: Cell monolayer growth assay (MTT); format: cell-based, human; conditions: enzalutamide up to 20 uM
Protocol: Twenty four hours after plating the 22Rv1 cells, they were treated with the indicated concentrations of KCI807 (FIG. 4C) or with the indicated concentrations of enzalutamide (ENZ) (FIG. 4D).
Twenty four hours after plating the cells, they were treated with the indicated concentrations of the compound.
FIG. 16D is a graph showing the effect of 5′-Fluoro-5,3′-Dihydroxyflavone at various concentrations on growth of 22Rv1 cells.
Cells were trypsinized and 3000-4000 cells/well were seeded in 96-well plates coated with poly-D-lysine. The cells were seeded in phenol red-free medium supplemented with 10% FBS, 100 units/ml penicillin, 100 μg/ml streptomycin, 2 mM L-glutamine mixture and sodium pyruvate (1 mM) for LNCaP cells and phenol red-free medium supplemented with 10% FBS, 100 units/ml penicillin, 100 μg/ml streptomycin and 2 mM L-glutamine mixture for VCaP, 22Rv1, DU145, HeLa, HEK293 and H1650 cells. The cells were grown at 37° C. in 5% CO2. Twenty four hours after seeding in the 96-well plates, the cells were treated with the indicated concentration of KCI807 or DMSO (vehicle). The cells were re-treated on Day 3 by removing half the volume of medium and replacing it with fresh treated medium. Cell viability was determined using the MTT assay from day zero until day five. MTT (10 μL, 5 mg/mL) was added to each well and incubated for 2h at 37° C. The formazan crystal sediments were dissolved in 100 μL of DMSO, and the absorbance at 570 nm was measured using the BioTek Synergy 2 Microplate Reader (BioTek, Winooski, Vt.). The assay was conducted in sextuplicate wells and values were normalized to day zero.

[4] = tested on: ARE-dependent promoter activation by AR; assay: Counter screening assay: ARE-luciferase reporter in recombinant HeLa cells expressing AR; format: cell-based, human; conditions: testosterone-treated recombinant HeLa cells
Source text: FIG. 6B is a schematic diagram of the reporter system for the counter screening assay. Recombinant HeLa cells used in this assay are identical to the primary screening cells except for the absence of Gal4-ELK1 and substitution of the Gal4 elements in the promoter with a canonical ARE. In this case, testosterone causes cytosolic AR to translocate to the nucleus and bind to the ARE in the promoter resulting in activation of the luciferase reporter.
The cells generated for counter screening, are HeLa cells stably transduced with a lentiviral plasmid construct containing a minimal promoter-luciferase reporter and an upstream androgen response element (ARE) sequence. These HeLa cells were also transduced with a lentiviral expression plasmid encoding the full-length AR. These lentiviral constructs were made as follows. Custom synthesized PCR primers were used to amplify and clone the ARE sequence from a pG5luc plasmid construct containing an ARE sequence element into the pGreenFire1 ™-mCMV-EF1-Neo (Plasmid) at SpeI (upstream) and BamHI (downstream) sites. pG5luc Vector is well known and the complete sequence has NCBI accession #AF264724. The ARE containing pG5luc plasmid is described in detail in Patki et al., 2013, J Biol Chem, 288:11047-11065. The lentiviral vector expressing ARE-luciferase reporter was then packaged in lentivirus and parental HeLa cells were infected as described below under the heading “Lentivirus-mediated-Transduction.” After 72h of infection, 400 ug/mL of Geneticin was added to the culture medium to select for the transduced cells. These cells were then infected with the lentivirus containing the full length AR expression plasmid described above. After 72h of infection, 2 ug/mL of Puromycin was added to the culture medium to select for the transduced cells. Clonal cells harboring both the ARE-promoter-luciferase reporter and also stably expressing AR were then isolated using cloning cylinders as described above. The selected clones were further expanded and then tested for luciferase induction by testosterone. The clone that gave the greatest luciferase signal to noise ratio in response to testosterone treatment was then chosen for use in the counter screening assay for high throughput small molecule screening. All of the plasmid constructs generated above were sequenced to verify DNA sequences before, the constructs were used.
For high throughput screening, recombinant primary screening cells were first depleted of hormone by growing them for 24h in medium in which the serum used was heat-inactivated and charcoal-stripped. The cells were then plated in 384-well white flat bottom plates (5,000 cells/well) (Corning Product #3570) using a Multidrop (Thermo Fisher Scientific, Waltham, Mass.). […]

[5] = tested on: AR negative cell lines; assay: Toxicity to AR negative cell lines; conditions: at low doses, concentration range of 1 uM-10 uM
[6] = HLM 0.05 mg/ml, 30 minutes, 37° C.

For COc1c(-c2ccc(O)c(O)c2)oc2cc(O)cc(O)c2c1=O [5,7,3′,4′-tetrahydroxy-3-methoxyflavone], the “inhibition of ELK1-dependent promoter activation by AR (in words)” value [1] was “lack of inhibition”.
With Cc1ccc(-c2cc(=O)c3c(O)cccc3o2)cc1O [4′-methyl-5,3′-dihydroxyflavone, 5,3′-dihydroxy-4′-methylflavone] the “compound concentration after HLM incubation, Control (absence of NADPH), replicate” value [2, 6] was 1789 nM and 1770 nM and 1757 nM and 1773 nM and 1776 nM and 1782 nM, the “compound concentration after HLM incubation, NADPH treated, replicate” value [2, 6] was 1491 nM and 1513 nM and 1639 nM and 1651 nM and 1498 nM and 1501 nM and the “mean compound concentration, Control (absence of NADPH)” value [2, 6] was 1774 nM. The “mean compound concentration, NADPH treated” value [2, 6] was 1549 nM, the “percentage metabolized (%)” value ([2]; HLM 0.05 mg/ml, NADPH, 30 minutes, 37° C.) was 12.7% and the “reduction of metabolism in human liver microsomes relative to 5,3′-dihydroxyflavone” value ([2]; methyl group substitution on the 4′ carbon) was 50%. For the same compound, the “growth inhibition of 22Rv1 cells” value [3] was “retained its ability to inhibit growth”.
With O=c1cc(-c2cccc(O)c2)oc2cc(F)cc(O)c12 [7-Fluoro-5,3′-dihydroxyflavone] the “inhibition of ELK1-dependent promoter activation by AR (in words)” value [1] was “inhibited” and the “inhibition of ARE-dependent promoter activation by AR (in words)” value [4] was “inhibited”.
In the case of O=c1cc(-c2cc(O)cc(F)c2)oc2cc(F)cc(O)c12 [5′,7-diflouro-5,3′-dihydroxyflavone], the “toxicity to AR negative cell lines” value [5] is reported as “toxic”, the “inhibition of ELK1-dependent promoter activation by AR (in words)” value [1] is reported as “inhibited” and the “inhibition of ARE-dependent promoter activation by AR (in words)” value [4] is reported as “inhibited”.
In the case of O=c1cc(-c2ccc(O)c(O)c2)oc2cc(O)cc(O)c12 [Hit1, 5,7,3′,4′-tetrahydroxyflavone], the inhibition at 10 µM ([1]; Homo sapiens, HeLa, compound concentration of 10 μM, read-out: inhibition in the primary screen) is reported as 80 to 100% and the “inhibition of ARE-dependent promoter activation by AR (in words)” value [4] is reported as “virtual absence of an effect”.
